Data on three compounds can be found in ChEMBL document CHEMBL1201862, “PubChem BioAssay data set” (2004).

A word on the IC50: it is the concentration that inhibits the measured activity by half.

The source made the active and inactive calls. Cut-off read from the data, not from the text of the source: actives have a measured IC50 and inactives only a lower limit.

Chain of Envelope glycoprotein gp160 (Q6QLK5 whole entry, the tested form may be a part): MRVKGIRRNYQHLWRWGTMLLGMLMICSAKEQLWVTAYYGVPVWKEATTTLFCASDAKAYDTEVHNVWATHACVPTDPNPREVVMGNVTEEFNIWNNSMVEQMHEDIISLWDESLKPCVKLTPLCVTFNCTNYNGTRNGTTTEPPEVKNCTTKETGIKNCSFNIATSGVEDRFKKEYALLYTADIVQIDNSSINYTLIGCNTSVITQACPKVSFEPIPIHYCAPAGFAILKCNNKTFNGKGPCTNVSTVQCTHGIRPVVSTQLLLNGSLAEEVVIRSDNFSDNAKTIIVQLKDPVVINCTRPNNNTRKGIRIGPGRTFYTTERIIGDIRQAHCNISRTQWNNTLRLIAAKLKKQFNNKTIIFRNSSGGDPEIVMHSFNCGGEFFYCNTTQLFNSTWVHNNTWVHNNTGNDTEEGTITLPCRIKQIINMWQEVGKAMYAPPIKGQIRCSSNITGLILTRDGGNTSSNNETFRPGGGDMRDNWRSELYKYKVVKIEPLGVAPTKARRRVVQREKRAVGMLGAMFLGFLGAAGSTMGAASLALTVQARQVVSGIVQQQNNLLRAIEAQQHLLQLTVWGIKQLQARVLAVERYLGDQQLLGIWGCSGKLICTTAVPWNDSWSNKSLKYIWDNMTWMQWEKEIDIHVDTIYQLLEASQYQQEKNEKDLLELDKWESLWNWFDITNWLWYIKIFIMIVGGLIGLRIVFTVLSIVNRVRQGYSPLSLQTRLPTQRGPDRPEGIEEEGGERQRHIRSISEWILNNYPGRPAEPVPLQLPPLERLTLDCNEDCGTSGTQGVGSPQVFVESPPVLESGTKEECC

The experiment has as its target Envelope glycoprotein gp160 (Human immunodeficiency virus 1, UniProt Q6QLK5). The experiment is described as follows: cell-free HIV fusion peptide-binding blockers – biochemical, uHTS, fluorescence dequenching, […] (AID 1986).
As for `CCOc1cc(/C=N/NC2=NC(=O)C(CC(=O)O)S2)ccc1OCc1ccc(Cl)cc1` (stereo not drawn), the half-maximal inhibitory concentration (IC50) was 24.6 µM (active). Consider `O=C1/C(=C2\C(=O)N(Cc3ccc(F)cc3)c3ccccc32)SC(=S)N1CCS(=O)(=O)O`, for which the half-inhibitory concentration (IC50) is 15 µM (active).

`CCCOc1ccc(C(=O)NNC(=S)NC(=O)c2cc(-c3ccc(Cl)cc3)nc3ccccc23)cc1`: the half-inhibitory concentration (IC50) is 19.9 µM (active).
